According to Sander's compilation of Henry's law constants (doi:10.1016/j.atmosenv.2006.04.009):

Assay: Henry solubility constant Hcp at 298.15 K (mol/(m3 Pa))
Settings: reference: Cetin et al. (2006)

Structure (SMILES)	Henry solubility constant Hcp
ClC1=C(Cl)C2(Cl)C3C4OC4C(Cl)C3C1(Cl)C2(Cl)Cl (stereo not given) [heptachlorepoxide]	0.5
ClC1=C(Cl)[C@]2(Cl)[C@@H]3[C@@H]4C[C@@H]([C@H]5O[C@@H]45)[C@@H]3[C@@]1(Cl)C2(Cl)Cl [dieldrin]	0.92
ClC1=C(Cl)C2(Cl)[C@H]3C(Cl)C(Cl)C(Cl)[C@H]3C1(Cl)C2(Cl)Cl (stereo partly drawn) [cis-nonachlor]	1.4
ClC1=C(Cl)[C@]2(Cl)[C@H]3[C@H](Cl)[C@@H](Cl)C[C@H]3[C@@]1(Cl)C2(Cl)Cl [trans-chlordane]	0.063
ClC(Cl)=C(c1ccc(Cl)cc1)c1ccc(Cl)cc1 [1,1-dichloro-2,2-bis-(4-chlorophenyl)-ethene]	0.16
ClC1=C(Cl)[C@]2(Cl)[C@@H]3[C@H]4C[C@H]([C@@H]5O[C@H]45)[C@@H]3[C@@]1(Cl)C2(Cl)Cl [endrin]	1.8
ClC1=C(Cl)[C@]2(Cl)[C@H]3[C@H]([C@@H]4C=C[C@H]3C4)[C@@]1(Cl)C2(Cl)Cl [aldrin]	0.022
ClC1C(Cl)C(Cl)C(Cl)C(Cl)C1Cl (stereo not given) [γ-1,2,3,4,5,6-hexachlorocyclohexane]	3.9
Clc1ccc(C(c2ccc(Cl)cc2)C(Cl)(Cl)Cl)cc1 [1,1,1-trichloro-2,2-bis-(4-chlorophenyl)-ethane]	0.9
ClC1C(Cl)C(Cl)C(Cl)C(Cl)C1Cl (stereo not drawn) [α-1,2,3,4,5,6-hexachlorocyclohexane]	3
ClC1=C(Cl)[C@]2(Cl)[C@@H]3[C@@H](Cl)[C@@H](Cl)C[C@@H]3[C@@]1(Cl)C2(Cl)Cl [cis-chlordane]	0.15
ClC1=C(Cl)C2(Cl)C3C(Cl)C=CC3C1(Cl)C2(Cl)Cl (stereo not given) [heptachlor]	0.019
CCOP(=S)(OCC)Oc1nc(Cl)c(Cl)cc1Cl [chlorpyrifos]	0.22
Clc1ccc(C(c2ccc(Cl)cc2)C(Cl)Cl)cc1 [1,1-dichloro-2,2-bis-(4-chlorophenyl)-ethane]	0.91
ClC1=C(Cl)C2(Cl)C3C(Cl)C(Cl)C(Cl)C3C1(Cl)C2(Cl)Cl (stereo not drawn) [trans-nonachlor]	0.088
